Laboratory results from paper PMC12062363, “Phytochemical analysis and neuroprotective potential of Achillea santolina L. fractions” (Scientific Reports, 2025).

Key:
COX-2 enzyme = target: T1, COX-2 enzyme (Homo sapiens, UniProt P35354); assay: biochemical; assay type: biochemical; details: three replicates
T1 sequence (P35354 18-604): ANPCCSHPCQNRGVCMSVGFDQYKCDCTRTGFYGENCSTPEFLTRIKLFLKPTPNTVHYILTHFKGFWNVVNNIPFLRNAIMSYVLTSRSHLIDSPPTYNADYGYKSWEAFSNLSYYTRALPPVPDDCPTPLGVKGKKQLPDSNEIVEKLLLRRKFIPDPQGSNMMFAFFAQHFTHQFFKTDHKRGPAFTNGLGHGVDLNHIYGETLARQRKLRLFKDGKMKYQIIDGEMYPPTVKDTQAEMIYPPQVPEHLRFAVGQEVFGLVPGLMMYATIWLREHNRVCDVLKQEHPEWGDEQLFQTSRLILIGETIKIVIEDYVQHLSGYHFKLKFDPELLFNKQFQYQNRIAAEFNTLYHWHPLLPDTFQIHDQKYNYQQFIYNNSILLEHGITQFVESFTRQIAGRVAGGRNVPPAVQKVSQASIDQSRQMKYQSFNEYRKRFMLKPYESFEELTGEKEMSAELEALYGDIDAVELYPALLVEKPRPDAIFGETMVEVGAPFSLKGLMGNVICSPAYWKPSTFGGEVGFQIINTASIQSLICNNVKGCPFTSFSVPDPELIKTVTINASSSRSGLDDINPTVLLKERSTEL
Method: All in vitro determinations were performed in triplicate and reported as mean ± standard deviation. The IC50 values were determined by transforming the concentrations to logarithmic form and applying a non-linear regression equation for inhibitors (log inhibitor) versus the normalized response-variable slope equation. In vitro studies were analyzed using one-way ANOVA and Tukey’s test, with p values under < 0.05 regarded as significant. […] All figures and statistical analyses were generated with GraphPad Prism version 8.0® for Windows (GraphPad Software, San Diego, California USA).
The inhibitory activity of the tested samples against COX-2 enzyme was determined colorimetrically ^6. Celecoxib was used as a reference drug.

5-LOX = target: T2, 5-LOX (Homo sapiens, UniProt P09917); assay: In vitro lipoxygenase (5-LOX) inhibitory activity; assay type: biochemical; details: three replicates
T2 sequence (P09917 1-674): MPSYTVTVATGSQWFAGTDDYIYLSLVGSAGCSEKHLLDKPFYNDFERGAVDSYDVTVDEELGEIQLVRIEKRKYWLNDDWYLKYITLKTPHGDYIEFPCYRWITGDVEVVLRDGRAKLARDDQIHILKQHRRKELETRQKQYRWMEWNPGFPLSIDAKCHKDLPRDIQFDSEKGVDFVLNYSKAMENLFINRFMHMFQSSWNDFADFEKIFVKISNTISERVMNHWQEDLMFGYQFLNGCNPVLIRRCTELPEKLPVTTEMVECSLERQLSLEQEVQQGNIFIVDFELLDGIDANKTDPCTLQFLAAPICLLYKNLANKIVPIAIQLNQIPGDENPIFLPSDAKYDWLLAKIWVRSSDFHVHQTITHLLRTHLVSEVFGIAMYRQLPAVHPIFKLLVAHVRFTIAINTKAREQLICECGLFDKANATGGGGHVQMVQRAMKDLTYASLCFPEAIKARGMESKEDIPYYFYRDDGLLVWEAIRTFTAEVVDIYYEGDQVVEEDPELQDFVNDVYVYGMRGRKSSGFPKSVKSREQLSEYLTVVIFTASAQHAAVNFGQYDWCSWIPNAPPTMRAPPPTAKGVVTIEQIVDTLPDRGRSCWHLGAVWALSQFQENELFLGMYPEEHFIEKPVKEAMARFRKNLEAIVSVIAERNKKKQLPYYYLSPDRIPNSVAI
Method: All in vitro determinations were performed in triplicate and reported as mean ± standard deviation. The IC50 values were determined by transforming the concentrations to logarithmic form and applying a non-linear regression equation for inhibitors (log inhibitor) versus the normalized response-variable slope equation. […] All figures and statistical analyses were generated with GraphPad Prism version 8.0® for Windows (GraphPad Software, San Diego, California USA).
The 5-LOX inhibitory activity was determined according to a previous method ^7. […] The IC50 of each tested sample was calculated.

[1] = system: Tumor necrosis factor alpha; assay: TNF-α immunohistochemistry in cerebral cortex, MSG-induced neurotoxicity in rats; assay type: in vivo, Wistar rats; details: standard 30 mg/kg orally, 14 days
Method: Sixty-three rats were randomly allocated into nine experimental groups (n = 7): Control Group; served as negative control that received distilled water (DW) at the volume of 1 ml/rat orally via an intragastric tube once a day for 14 days. MSG Group, served as control positive where rats received DW at the volume of 0.5 mL/rats orally + 2 g/kg weight MSG dissolved in normal saline at the volume of 0.5 mL/rats orally via an intragastric tube once a day for 14 days[21]. Treated groups received MSG same way as MSG group along with various treatments as following: AS 200, 400 Groups; received Achillea santolina methanolic extract at doses of 200, 400 mg/kg, respectively. MF 200,400; received methylene chloride fraction of Achillea santolina extract with the same two doses and volume suspended in DW, BF 200, 400 received butanol fraction of Achillea santolina extract with the same two doses and volume suspended in DW, and standard group (Std): received Dextromethorphan 30 mg/kg at the volume of 0.5 mL/rats orally.
Tumor necrosis factor alpha was detected in paraffin embedded tissue by immunoperoxidase technique. Briefly, tissue sections were deparaffinized and then incubated in citrate buffer PH 6 for antigen retrieval. […] Area percent of positive staining was measured by Image J software in 3 sections/ group at 200X magnification.

[2] = system: cerebral cortex and hippocampus of MSG-treated rats; assay: Brain histopathology (H&E) in MSG-induced neurotoxicity in rats; assay type: in vivo, Wistar rats; details: standard 30 mg/kg orally, 14 days
Method: One day post the last dose, rats were anesthetized using ketamine 90 mg i.p and Blood was drawn from the Orbital sinus[22] followed by euthanizing of all rats[22]. […] The whole brains were expunged, washed with cold saline, wiped with filter paper, and split into two portions(hemispheres): one hemisphere was used for histopathological examinations following formalin fixation, however the other hemisphere was snap-frozen in liquid nitrogen and kept at − 80 °C to be used for biochemical assessment (MDA, GSH and TNF-α) and for RNA extraction. Samples were assayed in triplicates[2].
Brain specimens were preserved in 10% neutral buffered formalin followed by processing in increasing concentrations of ethanol and xylene. […]

`O=c1cc(-c2ccc(O)cc2)oc2cc(O)c([C@@H]3O[C@H](CO)[C@@H](O)[C@H](O)[C@H]3O)c(O)c12` [Isovitexin, Apigenin 6-C-β-glucopyranoside] was tested, and the “COX-2 inhibitory activity IC50” value (COX-2 enzyme) was “most powerful” and the “5-LOX inhibitory potential IC50” value (5-LOX) was “highest inhibitory potential”.

Molecule `O=c1c(O[C@@H]2O[C@H](CO)[C@@H](O)[C@H](O)[C@H]2O)c(-c2ccc(O)cc2)oc2cc(O)cc(O)c12` [Kaempferol-3-O-glucoside, Kaempferol 3-O-β-glucopyranoside] has an IC50 (5-LOX; read-out: 5-LOX inhibitory potential IC50) of 6.28 ± 0.16 µM.

`O=c1cc(-c2ccc(O)c(O)c2)oc2cc(O)cc(O)c12` [Luteolin] was tested, and the IC50 (COX-2 enzyme; read-out: COX-2 inhibitory activity IC50) was 12.04 ± 0.08 µM.

For `COc1ccc2c(c1)[C@]13CCCC[C@@H]1[C@H](C2)N(C)CC3` [dextromethorphan, Dextromethorphan], the “TNF-α expression in cerebral cortex (immunohistochemistry)” value [1] was “weak”, the “neuronal degeneration and gliosis, cerebral cortex” value [2] was “mild” and the “neuronal degeneration and gliosis, hippocampus” value [2] was “mild”.
